Results: the supplement of paper PMC10307832

How the values were obtained:
Assay in all cases: relative viability (nuclei count vs DMSO), 5 days (fraction); higher = more cells survive
FH535 = compound: CC1=C(C=CC(=C1)[N+](=O)[O-])NS(=O)(=O)C2=C(C=CC(=C2)Cl)Cl [FH535]
Method in brief: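 Lung cancer cell lines received five library-drug doses (not always all listed) spaced by √10, pinned on vehicle-anchored 1536-well plates after an overnight stay at 37 °C. Five days later, with no medium change, nuclei were Hoechst-stained, imaged at 4× and counted with MetaXpress. Viability is treated-well nuclei relative to vehicle-well nuclei, as a median across plates. Passing plates had control CV below 25% and at least one doubling.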

FH535 + Olaparib = compound: CC1=C(C=CC(=C1)[N+](=O)[O-])NS(=O)(=O)C2=C(C=CC(=C2)Cl)Cl [FH535] + O=C(c1cc(Cc2n[nH]c(=O)c3ccccc23)ccc1F)N1CCN(C(=O)C2CC2)CC1 [Olaparib] (partner 8 µM)
Method in brief: (§1)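 A single step with final 0.05% Triton X-100, 1% formaldehyde and 1 ug/ml Hoechst fixed the cells and stained nuclei 5 days after treatment. Lung cancer cell lines in 1536-well plates had been treated by pin tool the day after seeding with one drug alone or a fixed anchor-drug dose plus five library-drug doses (not always all listed) in √10 steps, and nuclei were counted on 4× images. Relative viability is the ratio of nuclei in treated wells to nuclei in vehicle wells, taken as the median of duplicate plates.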

FH535 + Alpelisib = compound: CC1=C(C=CC(=C1)[N+](=O)[O-])NS(=O)(=O)C2=C(C=CC(=C2)Cl)Cl [FH535] + Cc1nc(NC(=O)N2CCC[C@H]2C(N)=O)sc1-c1ccnc(C(C)(C)C(F)(F)F)c1 [Alpelisib] (partner 2 µM)
Method in brief: as §1

FH535 + Dasatinib = compound: CC1=C(C=CC(=C1)[N+](=O)[O-])NS(=O)(=O)C2=C(C=CC(=C2)Cl)Cl [FH535] + Cc1nc(Nc2ncc(C(=O)Nc3c(C)cccc3Cl)s2)cc(N2CCN(CCO)CC2)n1 [Dasatinib] (partner 0.075 µM)
Method in brief: as §1

FH535 + Crizotinib = compound: CC1=C(C=CC(=C1)[N+](=O)[O-])NS(=O)(=O)C2=C(C=CC(=C2)Cl)Cl [FH535] + C[C@@H](Oc1cc(-c2cnn(C3CCNCC3)c2)cnc1N)c1c(Cl)ccc(F)c1Cl [Crizotinib] (partner 1 µM)
Method in brief: as §1

Row | Cell Line | relative viability (FH535; 0.04 µM) | relative viability (FH535; 0.1265 µM) | relative viability (FH535; 0.4 µM) | relative viability (FH535; 1.265 µM) | relative viability (FH535 + Olaparib; first compound 0.04 µM) | relative viability (FH535 + Olaparib; first compound 0.1265 µM) | relative viability (FH535 + Olaparib; first compound 0.4 µM) | relative viability (FH535 + Olaparib; first compound 1.265 µM) | relative viability (FH535 + Alpelisib; first compound 0.04 µM) | relative viability (FH535 + Alpelisib; first compound 0.1265 µM) | relative viability (FH535 + Alpelisib; first compound 0.4 µM) | relative viability (FH535 + Alpelisib; first compound 1.265 µM) | relative viability (FH535 + Dasatinib; first compound 0.04 µM) | relative viability (FH535 + Dasatinib; first compound 0.1265 µM) | relative viability (FH535 + Dasatinib; first compound 0.4 µM) | relative viability (FH535 + Dasatinib; first compound 1.265 µM) | relative viability (FH535 + Crizotinib; first compound 0.04 µM) | relative viability (FH535 + Crizotinib; first compound 0.1265 µM) | relative viability (FH535 + Crizotinib; first compound 0.4 µM) | relative viability (FH535 + Crizotinib; first compound 1.265 µM)
1 | NCI-H1666 | 0.986 | 0.976 | 0.954 | 0.93 | 0.742 | 0.731 | 0.756 | 0.725 | 1.04 | 0.956 | 1.01 | 0.693 | 0.833 | 0.85 | 0.716 | 0.64 | 1.06 | 0.979 | 0.956 | 0.871
2 | NCI-H1734 | 0.724 | 1.07 | 0.945 | 0.821 | 0.539 | 0.715 | 0.635 | 0.613 | 0.651 | 0.715 | 0.693 | 0.617 | – | 0.507 | 0.476 | 0.431 | 0.625 | 0.691 | 0.648 | 0.588
3 | NCI-H1755 | 1 | 1.05 | 0.944 | 0.953 | 0.867 | 0.857 | 0.8 | 0.869 | 0.941 | 0.897 | 0.853 | 0.867 | 0.353 | 0.46 | 0.404 | 0.422 | 0.931 | 0.859 | 0.801 | 0.776
4 | NCI-H1792 | 0.874 | 0.958 | 0.789 | 0.62 | 0.463 | 0.329 | 0.39 | 0.345 | 0.64 | 0.73 | 0.664 | 0.53 | 0.661 | 0.761 | 0.701 | 0.543 | 0.967 | 0.963 | 0.907 | 0.632
5 | NCI-H1915 | 0.863 | 1.03 | 0.906 | 0.792 | 0.208 | 0.286 | 0.242 | 0.236 | 1 | 1.07 | 1.05 | 0.738 | 0.292 | 0.306 | 0.287 | 0.3 | 0.907 | 0.871 | 0.867 | 0.688
6 | NCI-H1944 | 0.862 | 0.993 | 0.928 | 0.818 | 0.382 | 0.453 | 0.431 | 0.308 | – | 0.858 | 0.848 | 0.837 | 0.179 | 0.209 | 0.222 | 0.204 | – | 1.18 | 0.962 | 0.907
7 | NCI-H1975 | 0.919 | 0.965 | 0.87 | 0.82 | 0.868 | 0.877 | 0.718 | 0.624 | 0.614 | 0.682 | 0.607 | 0.487 | 0.304 | 0.341 | 0.263 | 0.294 | 1.06 | 1.08 | 0.948 | 0.842
8 | NCI-H1993 | 0.902 | 0.967 | 0.838 | 0.635 | 0.941 | 1.03 | 0.983 | 0.581 | 0.629 | 0.78 | 0.662 | 0.596 | 0.526 | 0.597 | 0.474 | 0.427 | 0.809 | 0.911 | 0.589 | 0.609
9 | NCI-H2009 | 0.964 | 1.01 | 0.92 | 0.701 | 0.666 | 0.652 | 0.662 | 0.552 | 1.15 | 1.16 | 1.17 | 0.959 | 0.256 | 0.307 | 0.269 | 0.277 | 1.1 | 1.06 | 0.903 | 0.677
10 | NCI-H2023 | 0.901 | 1.06 | 0.988 | 0.841 | 0.48 | 0.5 | 0.474 | 0.368 | 0.659 | 0.629 | 0.686 | 0.604 | 0.601 | 0.616 | 0.49 | 0.459 | 0.761 | 0.639 | 0.676 | 0.723
11 | NCI-H2085 | 0.96 | 0.967 | 0.97 | 0.852 | 0.818 | 0.713 | 0.749 | 0.571 | 0.959 | 0.977 | 0.941 | 0.675 | 0.271 | 0.174 | 0.284 | 0.217 | 1.03 | 0.969 | 0.705 | 0.695
12 | NCI-H2087 | 1.05 | 1.01 | 0.845 | 0.683 | 0.391 | 0.553 | 0.516 | 0.378 | 1.11 | 1.04 | 0.887 | 0.613 | 0.685 | 0.711 | 0.714 | 0.675 | 0.96 | 0.774 | 0.765 | 0.415
13 | NCI-H2126 | 0.961 | 1.02 | 0.888 | 0.67 | 0.928 | 0.896 | 0.822 | 0.525 | 0.744 | 0.744 | 0.718 | 0.626 | 0.598 | 0.573 | 0.49 | 0.292 | 0.976 | 0.984 | 0.941 | 0.683
14 | NCI-H2170 | 0.904 | 1.02 | 0.963 | 0.858 | 0.624 | 0.585 | 0.49 | 0.389 | 0.853 | 0.965 | 0.784 | 0.769 | 0.664 | 0.611 | 0.429 | 0.625 | 1.14 | 1.3 | 1.19 | 1.04
15 | NCI-H2228 | 0.884 | 1.01 | 0.985 | 0.896 | 0.783 | 0.886 | 0.709 | 0.698 | 0.687 | 0.669 | 0.911 | 0.63 | 0.49 | 0.502 | 0.552 | 0.402 | 0.523 | 0.606 | 0.486 | 0.388
